Peptide text beside a SMILES is read from it. * marks the point of attachment. Cbz = O=C(OCc1ccccc1)*; OtBu = CC(C)(C)O*
How the values were obtained:
VSVG-EGFP = type: cell-based
APP = APP processing in HEK293 cells stably expressing APPswe; type: cell-based; details: 10 μM, 16 h
Method: (§1) FIG. 3: Effect of compounds on NotchΔE-EGFP, APP and Klotho trafficking and processing. a) HEK293 stably expressing APPswe or Klotho (KI) were incubated with DAPT or compounds (10 μM) for 16 h. Media were collected, cells lysed and both assayed by Western blotting using indicated antibodies. m, mature; im, immature; s, shedded ectodomain; CTF, C-terminal fragment. b) Membranes from HeLa-NotchΔE-EGFP and APPswe cells were isolated and subjected to a γ-secretase in vitro assay in the presence of DAPT or compounds as indicated. NICD and AICD were detected by Western Blotting using antibodies against the C-terminus of APP (top) or antibodies specific for NICD (bottom). c) Quantitation from 5 independent experiments.
To test if the compounds that affected NotchΔE-EGFP processing also affected APP processing, HEK293 cells were used that stably expressed APPswe, a mutated APP that yields robust amounts of Aβ^18. […] All other compounds had no effect on APPCTF or Aβ.
APP, APPs, APPCTF and Aβ detection was as described before^54 using antibodies 22C11 for APP and APPs, 6687 for APPCTF and 3552 and 2D8 for Aβ. Klotho was detected as described in Bloch et al.^20. Chemoluminescence was quantified on a LAS-4000 (Fuji) with MultiGauge software.

YFP-GPI = assay: Surface transport of YFP-GPI in HeLa cells; type: cell-based; details: 18 h; 1 ig/ml BFA or 10 iM FLI-06
[1] = tested on: endogenous Notch signaling; assay: Luciferase Notch reporter assay in C2C12 cells transfected with Delta; type: cell-based; details: 16 h
Method: Cells were incubated with DAPT or 10 μM of the indicated compounds (50 μM in case of FLI-15 and -20) and after 16 h a luciferase assay was performed. […] Changes in relative gene expression levels (fold change) relative to the expression levels in DMSO controls are represented as the mean+/−SD, asterisks indicate p<0.01. Each measurement was taken from two independent samples. Each reaction was measured in triplicate. Changes in the relative expression of ngn1 were standardized to the expression of the housekeeping gene ef1a at 20 hpf. c) ISH with riboprobes specific for ngn1 was performed on dechorionated stage 4 hpf zebrafish embryos. Anterior is to the left, dorsal to the top. Magnifications of the somite region (small box) are shown. Arrows indicate larger ngn1 clusters or stronger ngn1 staining. s, sensory neurons; i, intermediate neurons; m, motor neurons.
We wanted to test whether the results obtained with the NotchΔE-EGFP construct are relevant for endogenous Notch signaling. Therefore we made use of C2C12 cells, a well established model for muscle development that expresses endogenous Notch^21,22. After stimulating endogenous Notch signaling by transfecting the Notch ligand Delta, Notch activity was measured by a luciferase assay using a Notch reporter^15 in the presence or absence of compounds (FIG. 4a). […] Next, we tested whether selected compounds would affect Notch signaling in vivo. […] Compounds were added to dechorionated stage 4 hpf zebrafish embryos and the effects were analyzed after 24 h by morphological inspection of somite formation. Phenotypes were ranked to four categories, normal somites, mild somite defects, strong somite defects and developmental delay. […] As an additional parameter we decided to analyze Notch-dependent genes involved in neurogenesis. Primary neurogenesis in zebrafish involves the selection of neuroblasts (repressed by Notch) from proneural clusters (Notch expressing cells), a process regulated in a negative manner by Notch-dependent lateral inhibition^25. Accordingly, neuroblast cells that express the neuronal specification factor neurogenin (ngn1^26) became more abundant when Notch signaling was impaired, for instance upon DAPT treatment^23,27. qPCR analyses on mRNA extracted from equivalent sets of embryos was performed for ngn1 expression (FIG. 4b). […] To confirm the data obtained by qPCR, whole-mount in-situ hybridizations (ISH) using an ngn1 specific riboprobe were performed (FIG. 4c, FIG. 11c). […] Taken together, FLI-06, -14, -15, -19 and -20 inhibited endogenous Notch signaling in vitro and in vivo, corroborating the NotchΔE-EGFP reporter data.
Endogenous Notch signaling in C2C12 was determined by a luciferase assay using a 12xCSL-luciferase reporter and transfected Delta as described before^15.

KlothoS = assay: Secretion of KlothoS from transfected HeLa cells; type: cell-based; details: 18 h
Method: Thereafter cells were fixed and analyzed by immunofluorescence microscopy. […] After incubating with compounds for 18 h media were collected, cells lysed and both analyzed by Western Blotting using Klotho antibody. As loading control membranes were probed for actin. […] […] Tunicamycin (Tun) and 5 mM DTT were used as positive controls. […] Shown is the average of three independent experiments, error bars indicate standard deviation.

γ-secretase = assay: In vitro γ-secretase assay with isolated membranes; type: biochemical; details: 37° C.
Method: as §1
To test whether FLI-06 affected other membrane proteins, Klotho, a type I protein processed like APP and Notch^20, was analyzed. […] To analyze γ-secretase activity, in vitro assays using isolated membranes were performed (FIG. 3b, c). Production of NICD-EGFP and AICD (APP intracellular domain) were assayed. Both were produced in vitro at 37° C. but not at 4° C., and their production was inhibited by DAPT.
For assaying AICD formation, membranes of HEK293 cells stably expressing APP with the Swedish mutation were isolated and incubated for 4 h at 37° C. according to Sastre et al.^52. For assaying NICD formation, membranes from HeLa NotchΔE-EGFP cells were mixed with membranes from HeLa NotchΔE-EGFP cells that were pre-treated with 10 μM DAPT overnight to enrich substrate. After incubation samples were loaded onto either 8% SDS-PA gels (NICD) or 10-20% Tris-Tricine gels (AICD), blotted and probed with cleaved-Notch antibody or antibody 6687 against APP C-terminus^53. Chemoluminescence was quantified on a LAS-4000 (Fuji) with MultiGauge software.

| Structure (SMILES) | recruitment of VSVG-EGFP to ERES (VSVG-EGFP) | velocity of action on ER export (VSVG-EGFP) | APPCTF in cells (APP) | APPs (shedded ectodomain) secretion (APP) | Aβ in the cell supernatant (APP) | glycosylation pattern of APP (APP) | surface transport of YFP-GPI (YFP-GPI) | inhibition of endogenous Notch signaling ([1]; 10 μM) | secretion of KlothoS (KlothoS) | NICD-EGFP and AICD production in isolated membranes (γ-secretase) | inhibition of endogenous Notch signaling ([1]; 50 μM) |
| --- | --- | --- | --- | --- | --- | --- | --- | --- | --- | --- | --- |
| CC1=C(C(=O)OC2CCCCC2)C(c2ccc([N+](=O)[O-])cc2)C2=C(CC(C)(C)CC2=O)N1 (stereo not shown) [FLI-06, Cyclohexyl 4-(4′-nitrophenyl)-2,7,7-trimethyl-5-oxo-1,4,5,6,7,8-hexahydroquinoline-3-carboxylate] | strongly reduced | acts instantaneously on ER export | no APPCTF accumulated | abolished the shedding of APPs | essentially disappeared | changed the glycosylation pattern of APP | inhibit surface transport of YFP-GPI | strongly | inhibit secretion of KlothoS | did not affect γ-secretase in isolated membranes | – |
| Cn1c2ccccc2c2c(C(=O)N3CCN(Cc4ccc5c(c4)OCO5)CC3)cn(C3CCCC3)c(=O)c21 [FLI-14] | – | – | accumulated | – | essentially disappeared | – | – | strongly | – | did not affect γ-secretase in isolated membranes | – |
| Cc1ccc(NC(=O)C(NS(=O)(=O)c2cccc3nsnc23)C(C)C)nc1 (stereo not shown) [FLI-15] | – | – | accumulated | – | weakly reduced | – | – | hardly affected Notch signaling | – | clearly reduced NICD-EGFP and AICD production | remarkably |
| CC(C)CC(NC(=O)C(Cc1ccccc1)NC(=O)C1CCCN1C(=O)OCc1ccccc1)C(=O)OC(C)(C)C (stereo not drawn) [FLI-19] (Cbz-Pro-Phe-Leu-OtBu; configuration not given here) | – | – | – | reduced APPs secretion | – | – | – | considerably | – | did not affect γ-secretase in isolated membranes | – |
| CC(=O)Nc1ccc2nc(NC(=O)CC34CC5CC(CC(C5)C3)C4)sc2c1 [FLI-20] | – | – | accumulated | reduced APPs secretion | weakly reduced | – | – | hardly affected Notch signaling | – | clearly reduced NICD-EGFP and AICD production | remarkably |
